# Assay results reported in doi:10.1101/2025.06.15.659787v1 (biorxiv, 2025).
# Biological target: Mtb-SufS (Mycobacterium tuberculosis, UniProt P9WQ69)
# Sequence (P9WQ69 whole entry): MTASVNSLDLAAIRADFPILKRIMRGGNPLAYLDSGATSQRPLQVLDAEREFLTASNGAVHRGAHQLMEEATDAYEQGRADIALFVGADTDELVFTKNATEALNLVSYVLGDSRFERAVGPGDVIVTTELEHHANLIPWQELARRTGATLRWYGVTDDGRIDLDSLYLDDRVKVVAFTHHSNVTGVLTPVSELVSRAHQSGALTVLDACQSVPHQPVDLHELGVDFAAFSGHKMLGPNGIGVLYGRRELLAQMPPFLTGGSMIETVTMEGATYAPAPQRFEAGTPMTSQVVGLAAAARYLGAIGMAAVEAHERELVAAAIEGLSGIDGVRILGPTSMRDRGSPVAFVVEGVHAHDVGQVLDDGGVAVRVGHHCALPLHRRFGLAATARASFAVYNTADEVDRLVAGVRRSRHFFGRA
smiles,measurement,value
N[C@@H](CS)C(=O)O [L-Cys],GC-MS assay of L-Ala formation,Mtb-SufS shows low basal activity
